Assay results from ChEMBL document CHEMBL1201862, “PubChem BioAssay data set” (2004).
Active and inactive are the calls of the source.

Legend:
[1] = target: T1, Coagulation factor XII (Homo sapiens, UniProt P00748); type: functional;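 also: activated factor XIIa alpha cleaving a fluorogenic AMC peptide substrate; inhibitor potency from loss of enzyme activity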
T1 sequence (P00748 whole entry): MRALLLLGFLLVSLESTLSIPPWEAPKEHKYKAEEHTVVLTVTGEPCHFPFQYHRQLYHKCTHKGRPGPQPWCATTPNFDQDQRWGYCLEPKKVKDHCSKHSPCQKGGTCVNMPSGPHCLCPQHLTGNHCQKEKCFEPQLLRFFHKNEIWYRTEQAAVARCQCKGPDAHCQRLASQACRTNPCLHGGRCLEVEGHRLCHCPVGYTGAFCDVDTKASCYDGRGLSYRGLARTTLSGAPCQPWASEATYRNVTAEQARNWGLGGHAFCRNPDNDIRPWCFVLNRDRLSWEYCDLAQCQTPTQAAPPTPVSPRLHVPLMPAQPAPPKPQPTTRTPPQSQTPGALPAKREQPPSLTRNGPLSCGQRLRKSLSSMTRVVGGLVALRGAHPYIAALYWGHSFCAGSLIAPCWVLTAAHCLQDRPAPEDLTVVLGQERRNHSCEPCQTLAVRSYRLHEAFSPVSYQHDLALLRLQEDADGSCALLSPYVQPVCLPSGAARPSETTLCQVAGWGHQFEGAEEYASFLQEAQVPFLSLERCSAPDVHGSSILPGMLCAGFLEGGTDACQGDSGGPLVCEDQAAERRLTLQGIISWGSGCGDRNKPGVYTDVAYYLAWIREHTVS

[2] = target: X-box-binding protein 1 (Homo sapiens, UniProt P17861); type: functional, Cricetulus griseus;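 also: confirmatory dose-response counter-screen serving a CHOP assay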
Sequence of X-box-binding protein 1 (P17861 whole entry): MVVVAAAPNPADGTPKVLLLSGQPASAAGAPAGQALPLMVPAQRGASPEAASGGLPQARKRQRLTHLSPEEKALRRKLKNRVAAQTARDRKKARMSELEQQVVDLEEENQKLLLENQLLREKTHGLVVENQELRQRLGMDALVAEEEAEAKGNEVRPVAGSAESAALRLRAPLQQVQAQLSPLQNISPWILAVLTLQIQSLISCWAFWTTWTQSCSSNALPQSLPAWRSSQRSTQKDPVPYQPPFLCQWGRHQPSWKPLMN

[3] = target: Eukaryotic translation initiation factor 4H (Homo sapiens, UniProt Q15056); assay: inhibitors of translation initiation factor eIF4H – SAR follow-up (AID 435011); type: functional
[4] = target: Polyadenylate-binding protein 1 (Homo sapiens, UniProt P11940); assay: PABP inhibition in translation initiation, SAR follow-up (AID 435018); type: functional
Sequence of Polyadenylate-binding protein 1 (P11940 whole entry): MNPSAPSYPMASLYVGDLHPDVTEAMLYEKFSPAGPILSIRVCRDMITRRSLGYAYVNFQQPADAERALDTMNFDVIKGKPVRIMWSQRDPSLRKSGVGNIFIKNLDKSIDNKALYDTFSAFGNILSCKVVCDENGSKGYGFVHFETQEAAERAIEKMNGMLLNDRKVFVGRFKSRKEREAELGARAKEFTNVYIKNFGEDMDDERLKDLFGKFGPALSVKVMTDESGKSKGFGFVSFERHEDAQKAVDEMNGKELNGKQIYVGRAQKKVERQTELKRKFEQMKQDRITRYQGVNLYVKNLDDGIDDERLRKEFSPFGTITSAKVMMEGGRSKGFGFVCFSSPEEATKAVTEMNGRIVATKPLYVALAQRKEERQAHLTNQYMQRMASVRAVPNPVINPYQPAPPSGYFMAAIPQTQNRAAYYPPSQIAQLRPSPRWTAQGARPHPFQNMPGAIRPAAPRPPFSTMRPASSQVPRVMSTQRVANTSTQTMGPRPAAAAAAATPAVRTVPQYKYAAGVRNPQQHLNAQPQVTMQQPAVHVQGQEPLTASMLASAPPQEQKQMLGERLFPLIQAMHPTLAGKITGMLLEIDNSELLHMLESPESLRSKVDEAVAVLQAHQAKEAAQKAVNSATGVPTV

[5] = target: Induced myeloid leukemia cell differentiation protein Mcl-1 (Homo sapiens, UniProt Q07820); type: functional
Sequence of Induced myeloid leukemia cell differentiation protein Mcl-1 (Q07820 whole entry): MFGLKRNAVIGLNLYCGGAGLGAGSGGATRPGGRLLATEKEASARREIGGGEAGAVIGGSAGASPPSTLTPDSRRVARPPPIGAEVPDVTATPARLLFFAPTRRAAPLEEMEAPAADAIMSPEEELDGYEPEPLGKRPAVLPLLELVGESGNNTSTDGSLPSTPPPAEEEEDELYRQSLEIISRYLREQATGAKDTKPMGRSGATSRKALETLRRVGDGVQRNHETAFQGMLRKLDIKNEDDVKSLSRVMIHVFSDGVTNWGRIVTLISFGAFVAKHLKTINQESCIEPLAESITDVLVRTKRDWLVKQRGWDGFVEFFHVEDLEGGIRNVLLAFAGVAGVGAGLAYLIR

[6] = protection from phage-mediated lysis, alamar blue read-out – E. coli UTI89, K1F phage, bacterial capsule biogenesis inhibitors (AID 488966); type: functional
[7] = target: T2, Hexokinase HKDC1 (Homo sapiens, UniProt Q2TB90); assay: inhibition of HKDC1 glucose phosphorylation – biochemical, W721R variant, dose response (AID 504729); type: functional
T2 sequence (Q2TB90 whole entry): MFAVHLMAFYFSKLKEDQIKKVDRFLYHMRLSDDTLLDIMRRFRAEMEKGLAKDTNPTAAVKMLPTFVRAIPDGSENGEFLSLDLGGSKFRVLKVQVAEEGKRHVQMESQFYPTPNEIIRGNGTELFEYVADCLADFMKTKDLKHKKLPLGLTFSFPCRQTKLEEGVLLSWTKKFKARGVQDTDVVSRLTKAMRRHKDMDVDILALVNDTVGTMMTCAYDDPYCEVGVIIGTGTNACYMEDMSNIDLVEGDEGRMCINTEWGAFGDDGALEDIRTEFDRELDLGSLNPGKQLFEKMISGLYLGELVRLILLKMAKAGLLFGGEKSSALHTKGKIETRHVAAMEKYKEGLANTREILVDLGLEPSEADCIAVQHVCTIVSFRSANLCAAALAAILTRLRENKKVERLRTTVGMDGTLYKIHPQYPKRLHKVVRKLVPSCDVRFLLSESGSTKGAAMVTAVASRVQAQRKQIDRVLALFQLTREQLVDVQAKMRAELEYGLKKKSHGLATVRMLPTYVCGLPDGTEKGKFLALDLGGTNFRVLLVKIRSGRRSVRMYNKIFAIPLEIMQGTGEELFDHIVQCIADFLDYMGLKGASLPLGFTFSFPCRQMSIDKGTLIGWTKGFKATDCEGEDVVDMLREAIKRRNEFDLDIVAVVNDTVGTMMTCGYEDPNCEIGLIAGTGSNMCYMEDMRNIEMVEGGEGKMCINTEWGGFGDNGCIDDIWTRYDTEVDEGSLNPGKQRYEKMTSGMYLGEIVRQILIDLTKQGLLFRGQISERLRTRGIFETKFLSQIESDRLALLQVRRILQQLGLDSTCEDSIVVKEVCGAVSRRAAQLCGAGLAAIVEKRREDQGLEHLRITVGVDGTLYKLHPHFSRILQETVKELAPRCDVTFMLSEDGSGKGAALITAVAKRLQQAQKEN

CCOC(=O)CNC(=O)Cn1cnc2c(nnn2-c2cccc(Cl)c2)c1=O
IC50 [1]: > 50 µM (inactive)

Cc1ccc(NC(=O)C(=O)NCC2OCCc3ccccc32)cc1 (stereo not given)
Absolute IC50 (XBP1) [2]: 10 µM

O=C(CSc1ccc(-c2ccco2)nn1)N1CCCCCC1
IC50 [3]: 69.4 µM (active) | IC50 [4]: > 100 µM (inactive)

COc1ccc([N+](=O)[O-])cc1NC(=O)COC(=O)c1ccc(NC(N)=O)cc1
IC50 [3]: > 100 µM (inactive) | IC50 [4]: > 100 µM (inactive)

CCc1ccc2nc3sc(C(=O)Nc4nnc(CC)s4)c(N)c3cc2c1
IC50 [5]: 4.39 µM (not active) | IC50 [6]: > 150 µM (active)

Nc1c(Br)cc2c3c(cccc13)-c1ccccc1-2
IC50 [7]: 4.58 µM (active)

Cc1ccc(C(=O)Oc2ccc(/C=C3\C(=N)N4N=C(N5CCOCC5)SC4=NC3=O)cc2)cc1
IC50 [6]: > 75 µM (active)
